Data reported in patent US20070213282A1, “Peroxisome proliferator-activated receptor (PPAR) activator, and drugs, supplements, functional foods and food additives using the same” (ARKRAY, Inc., priority 2004, published 2007).

Legend:
[1] = tested on: adiponectin mRNA in 3T3-L1; assay: adiponectin mRNA expression in differentiating 3T3-L1 preadipocytes (Light Cycler, ratio to 36B4); format: cell-based; settings: for Adiponectin mRNA expression amount (ratio to 36B4): 3T3-L1, 7 days after differentiation induction, non-treatment control = 100, average ± standard error
Procedure: (§1) (Differentiation Induction of Preadipocyte)
(§2) 1. Differentiation Induction Medium (0.25 μM DEX, 0.5 mM MIX, 10 μg/ml insulin/10% FBS/DMEM)
(§3) 55 ml of FBS (fetal bovine serum (available from GIBCO)) was added to 500 ml of DMEM (available from SIGMA) so as to prepare 10% FBS/DMEM. To this 10% FBS/DMEM, 138.75 μl of 1 mM DEX (dexamethasone)/DMSO (available from Nacalai Tesque, Inc.) and 555 μl of 10 mg/ml insulin/PBS (available from SIGMA) were added. Note here that the insulin/PBS was obtained by adding 1 N HCl to PBS in advance so as to make the solution acidic enough to allow insulin dissolution and then dissolving insulin. MIX (3-isobutyl-1-methylxanthine) (available from Nacalai Tesque, Inc.) was added to a necessary amount of the above-described medium immediately before use in such a manner as to achieve 0.5 mM concentration, thereby preparing a differentiation induction medium. Since MIX was very difficult to dissolve, it first was dissolved in a small amount of 99.5% ethanol and then added to 10% FBS/DMEM.
2. Differentiation Promotion Medium (5 μg/ml Insulin/10% FBS/DMEM)
A differentiation promotion medium was prepared by adding 277.5 μl of 10 mg/ml insulin/PBS to 555 ml of 10% FBS/DMEM.
Next, cultured preadipocytes 3T3-L1 were thawed, inoculated in a 100 mm dish and cultured until the 3T3-L1 cells reached about 80% confluence. A single dish of 3T3-L1 that had reached about 80% confluence was subcultured to a single 6-well plate and further cultured until the 3T3-L1 cells reached confluence in the 6-well plate, and then the medium was replaced with the differentiation induction medium, followed by differentiation induction. 48 hours later, the medium was replaced with the differentiation promotion medium, and thereafter, the medium was replaced with the differentiation promotion medium every two days. 7 days after the initiation of the differentiation induction, mRNA was extracted using a Sepasol-RNA I Super (trade name; available from Nacalai Tesque, Inc.), and the mRNA expression amounts of 36B4, aP2 and adiponectin, which were indicators of an early period of adipocyte differentiation, were measured using a Light Cycler™.
(§4) The medium was removed from the above-described Swell plate, 1 ml of Sepasol-RNA I Super (available from Nacalai Tesque, Inc.) was added to each well, and pipetting was repeated several times so as to disperse the cells. […] The resultant precipitate (total RNA) was dried and then dissolved in 20 μl of nuclease free water, and the concentration of mRNA was measured using Nanoprop (available from SCRUM Inc.).
(§5) The extracted and measured mRNA solution was adjusted to have an mRNA concentration of 1 μg/μl. […]

[2] = biological target: T1, human PPARγ ligand-binding domain (Homo sapiens, UniProt P37231); assay: PPARγ ligand activity, GAL4-hPPARγ luciferase reporter assay in CV-1 cells; format: cell-based; settings: for PPARγ ligand activity: luciferase activity relative to non-treatment control (DMSO) = 100, average ± standard error, n=4
T1 construct: expressed in transfected cells; host or cells: CV-1 cells (African green monkey kidney)
T1 sequence (P37231 204-505): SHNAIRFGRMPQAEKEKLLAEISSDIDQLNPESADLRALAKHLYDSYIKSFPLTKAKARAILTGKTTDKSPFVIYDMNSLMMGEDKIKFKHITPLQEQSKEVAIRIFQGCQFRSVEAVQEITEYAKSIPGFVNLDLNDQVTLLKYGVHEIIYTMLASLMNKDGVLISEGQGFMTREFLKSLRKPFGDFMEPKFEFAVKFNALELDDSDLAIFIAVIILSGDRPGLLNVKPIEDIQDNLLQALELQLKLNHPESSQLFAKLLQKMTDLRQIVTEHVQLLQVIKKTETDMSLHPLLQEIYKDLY
Procedure: First, CV-1 cells (cultured cells derived from kidneys of male African green monkeys) were inoculated on 24-well culture plates so as to be […] and cultured at 37° C. in 5% CO2 for 24 hours. As a medium, DMEM (Dulbecco's Modified Eagle Medium; available from GIBCO) containing 10% FBS (fetal bovine serum) and a 10 mg/ml penicillin streptomycin solution was used. Next, using the Lipofectamine system (Invitrogen Corporation), pM-hPPARγ and p4×UASg-tk-luc were transfected into the cultured CV-1 cells. The above-noted pM-hPPARγ was a vector for expressing fusion protein containing residues 1-147 of GAL4 binding domain and residues 204-505 of human PPARγ ligand-binding domain, and the above-noted p4×UASg-tk-luc was a reporter plasmid containing four copies of an upstream activating sequence (UAS) for GAL4 binding domain and a thymidine kinase gene promoter upstream of a luciferase gene. After the transfection, the cells were cultured for about 24 hours, and then, the media for the cells were changed to media containing nobiletin at respective concentrations (0.1, 1.0, and 50 μM) or media for non-treatment control, followed by an additional 24 hour culture. The above-noted media containing nobiletin were prepared by adding nobiletin dissolved in dimethyl sulfoxide (DMSO) to the media, whereas the media for non-treatment control were prepared by adding only DMSO to the media. After the culture, the cells were lysed and the measurement of luciferase activity was performed using a Dual-Luciferase
Reporter Gene Assay system (available from Promega Corporation) (Measurement Group).
Similarly to the measurement group, as a control group, the measurement of luciferase activity was performed using pM (a vector containing residues 1-147 of GAL4 binding domain and not containing residues 204-505 of PPARγ ligand-binding domain in pM-hPPARγ) instead of the pM-hPPARγ. For each sample, the ratio between average luminescence intensities of the measurement group and the control group (n=4) (measurement group/control group) was calculated, and the luciferase activity relative to the non-treatment control was determined as the PPARγ ligand-binding activity of the sample.

[3] = tested on: aP2 mRNA in 3T3-L1; assay: aP2 mRNA expression in differentiating 3T3-L1 preadipocytes (Light Cycler, ratio to 36B4); format: cell-based; settings: 3T3-L1, 7 days after differentiation induction, non-treatment control = 100, average ± standard error
Procedure: as §1, §2, §3
2. Differentiation Promotion Medium (5 μg/ml Insulin/10% FBS/DMEM) […]
Next, cultured preadipocytes 3T3-L1 were thawed, inoculated in a 100 mm dish and cultured until the 3T3-L1 cells reached about 80% confluence. […] 7 days after the initiation of the differentiation induction, mRNA was extracted using a Sepasol-RNA I Super (trade name; available from Nacalai Tesque, Inc.), and the mRNA expression amounts of 36B4, aP2 and adiponectin, which were indicators of an early period of adipocyte differentiation, were measured using a Light Cycler™.
as §4, §5

[4] = tested on: spontaneously diabetic mice (KK-A^y); assay: adiponectin secretion amount in serum of spontaneously diabetic mice (KK-Ay), ELISA; format: in vivo
Excerpt: The present example verified the diabetes relieving-effect of nobiletin through an experiment using spontaneously diabetic mice (KK-A^y).
First, twelve spontaneously diabetic mice (6-week old, female) were fed preliminarily with normal diet for one week. Next, the mice were divided into two groups, namely, a control group and a NOB group (n=6) such that the average weights of these two groups were the same. Then, the mice of the control group were fed with high-fat diet only, whereas the mice of the NOB group were fed with high-fat diet containing 0.02% nobiletin. 27 days or 28 days after the initiation of feeding, serum was collected from these mice. […]
Only the strips of the antibody plates necessary for the analysis were taken out. […] Thereafter, 100 μl of the standard solutions with respective concentrations and 100 μl of the diluted specimen solutions were added to the individual wells and measured in duplicate. Note here that the standard solutions always were measured for each measurement and each plate. […] After 100 μl of the substrate solution was added to each well of the antibody plate and allowed to stand still for reaction for 15 minutes at room temperature, 100 μl of the reaction stop solution was added to each well of the antibody plate, and then the absorbance at 450 nm in each well was measured with a plate reader. […]

Structure (SMILES): COc1ccc(-c2cc(=O)c3c(OC)c(OC)c(OC)c(OC)c3o2)cc1OC [nobiletin]
- Adiponectin mRNA expression amount (ratio to 36B4) ([1]; 5 μM): 265.1 ± 60.4
- Adiponectin mRNA expression amount (ratio to 36B4) ([1]; 10 μM): 352.3 ± 28.5
- Adiponectin mRNA expression amount (ratio to 36B4) ([1]; 1 μm): 164.9 ± 18.7
- secretion of adiponectin in adipocytes, result in words ([1]; 3T3-L1 cultured with nobiletin versus non-treated control medium): enhance the secretion of adiponectin in the adipocytes significantly
- PPARγ ligand activity ([2]; 0.1 μM): 96.5 ± 10.8
- PPARγ ligand activity ([2]; 1.0 μM): 156.8 ± 11.3
- PPARγ ligand activity ([2]; 10 μM): 200.5 ± 55.1
- PPARγ ligand activity ([2]; 50 μM): 246 ± 41.7
- PPARγ activity, result in words ([2]; 0.1-50 μM, versus non-treatment control): increased significantly in keeping with the concentration of nobiletin
- aP2 mRNA expression amount (ratio to 36B4) ([3]; 5 μM): 193.7 ± 41.4
- aP2 mRNA expression amount (ratio to 36B4) ([3]; 10 μM): 273.1 ± 13.8
- aP2 mRNA expression amount (ratio to 36B4) ([3]; 1 μm): 155.8 ± 21.7
- Adiponectin secretion amount ([4]; KK-Ay mice, high-fat diet containing 0.02% nobiletin, serum 27 or 28 days after initiation of feeding, average ± standard error, n=6, control group 4.78 ± 0.096): 7.18 ± 0.50
- adiponectin secretion amount, result in words ([4]; diabetic mice of NOB group versus control group): increase the adiponectin secretion amount in the adipocytes significantly
